Test results: the supplement of paper PMC4862054

Each compound was assayed on MDA-MB-468 (assay: normalised response (% of control), CellTox Green; higher = less cell death (100 = DMSO, 0 = benzethonium chloride kill control)). Settings: incubation time: 72 h.
Method in brief: (§1)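 Two readouts were taken after 72 h: CellTox Green fluorescence (485/520 nm) first, then CellTiter-Glo luminescence after 10 min at room temperature. Breast cancer cell lines had been seeded as 20 µl suspension into 384-well plates holding compound at 5 concentrations in 10-fold steps across a compound-specific 10,000-fold range. Each value is a normalised signal at a single concentration, with plates scaled to 0.1 % DMSO (100) and a positive kill control (0).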
`CCn1c(C(=O)N(C2CC2)C2CC2)cc2c3c(ncn3C)c(Nc3cc(C)n(C)n3)nc21` (100 nM) showed a normalised response of 83.1%.
With `COc1ccc(S(=O)(=O)Nc2cccnc2Nc2ccc(O)cc2)cc1` [ABT-751] (100 nM) the normalised response was 81.9%.
`COc1cc(Nc2c(C#N)cnc3cc(OCCCN4CCN(C)CC4)c(OC)cc23)c(Cl)cc1Cl` [Bosutinib] (100 nM) showed a normalised response of 148%.
Compound `CC(C)(C)c1nc(-c2cccc(NS(=O)(=O)c3c(F)cccc3F)c2F)c(-c2ccnc(N)n2)s1` [Dabrafenib] (25 nM) has a normalised response of 119%.
Compound `CC1(C)CCC(c2ccc(Cl)cc2)=C(CN2CCN(c3ccc(C(=O)NS(=O)(=O)c4ccc(N[C@H](CCN5CCOCC5)CSc5ccccc5)c(S(=O)(=O)C(F)(F)F)c4)cc3)CC2)C1` [Navitoclax] (100 nM) has a normalised response of 104%.
`CC(C)n1cnc2c(NCCc3ccc(O)cc3)nc(-c3csc4ccccc34)nc21` [StemRegenin 1] (100 nM) gave a normalised response of 105%.

These compounds were tested on Hs578T in the same assay as above. Settings: incubation time: 72 h.
Method in brief: as §1
`CCNC(=O)CCC/C=C\C[C@@H]1[C@@H](/C=C/[C@@H](O)CCc2ccccc2)[C@H](O)C[C@@H]1O` [Bimatoprost] (55 nM) showed a normalised response of 103%.
`CCN(CC)CCCC(C)Nc1ccnc2cc(Cl)ccc12` (stereo not given) [Chloroquine] (1000 nM) showed a normalised response of 99.3%.

What follows are compounds tested on MCF-10A in the same assay as above. Settings: incubation time: 72 h.
Method in brief: as §1
For `CCn1c(C(=O)N(C2CC2)C2CC2)cc2c3c(ncn3C)c(Nc3cc(C)n(C)n3)nc21` (100 nM), the normalised response was 77.7%.
Compound `COc1ccc(S(=O)(=O)Nc2cccnc2Nc2ccc(O)cc2)cc1` [ABT-751] (100 nM) has a normalised response of 57%.
In the case of `CCNC(=O)CCC/C=C\C[C@@H]1[C@@H](/C=C/[C@@H](O)CCc2ccccc2)[C@H](O)C[C@@H]1O` [Bimatoprost] (55 nM), the normalised response is reported as 89.2%.
For `COc1cc(Nc2c(C#N)cnc3cc(OCCCN4CCN(C)CC4)c(OC)cc23)c(Cl)cc1Cl` [Bosutinib] (100 nM), the normalised response was 103%.
Work on `CCN(CC)CCCC(C)Nc1ccnc2cc(Cl)ccc12` (stereo not given) [Chloroquine] (1000 nM) yielded a normalised response of 86.3%.
In the case of `CC(C)(C)c1nc(-c2cccc(NS(=O)(=O)c3c(F)cccc3F)c2F)c(-c2ccnc(N)n2)s1` [Dabrafenib] (25 nM), the normalised response is reported as 108%.
Compound `CO[C@@]12[C@H](COC(N)=O)C3=C(C(=O)C(C)=C(N)C3=O)N1C[C@@H]1N[C@@H]12` [Mitomycin C] (100 nM) has a normalised response of 81.8%.
`CC1(C)CCC(c2ccc(Cl)cc2)=C(CN2CCN(c3ccc(C(=O)NS(=O)(=O)c4ccc(N[C@H](CCN5CCOCC5)CSc5ccccc5)c(S(=O)(=O)C(F)(F)F)c4)cc3)CC2)C1` [Navitoclax] (100 nM) was tested, and the normalised response was 79.6%.
With `CC(C)n1cnc2c(NCCc3ccc(O)cc3)nc(-c3csc4ccccc34)nc21` [StemRegenin 1] (100 nM) the normalised response was 117%.

What follows are compounds tested on MDA-MB-436 in the same assay as above. Settings: incubation time: 72 h.
Method in brief: as §1
For `CCn1c(C(=O)N(C2CC2)C2CC2)cc2c3c(ncn3C)c(Nc3cc(C)n(C)n3)nc21` (100 nM), the normalised response was 93.9%.
`COc1ccc(S(=O)(=O)Nc2cccnc2Nc2ccc(O)cc2)cc1` [ABT-751] (100 nM) was tested, and the normalised response was 83.8%.
In the case of `COc1cc(Nc2c(C#N)cnc3cc(OCCCN4CCN(C)CC4)c(OC)cc23)c(Cl)cc1Cl` [Bosutinib] (100 nM), the normalised response is reported as 104%.
In the case of `CCN(CC)CCCC(C)Nc1ccnc2cc(Cl)ccc12` (stereo not given) [Chloroquine] (1000 nM), the normalised response is reported as 85%.
`CC(C)(C)c1nc(-c2cccc(NS(=O)(=O)c3c(F)cccc3F)c2F)c(-c2ccnc(N)n2)s1` [Dabrafenib] (25 nM) showed a normalised response of 79.1%.
`CO[C@@]12[C@H](COC(N)=O)C3=C(C(=O)C(C)=C(N)C3=O)N1C[C@@H]1N[C@@H]12` [Mitomycin C] (100 nM) gave a normalised response of 83.8%.
In the case of `CC1(C)CCC(c2ccc(Cl)cc2)=C(CN2CCN(c3ccc(C(=O)NS(=O)(=O)c4ccc(N[C@H](CCN5CCOCC5)CSc5ccccc5)c(S(=O)(=O)C(F)(F)F)c4)cc3)CC2)C1` [Navitoclax] (100 nM), the normalised response is reported as 72.7%.
For `CC(C)n1cnc2c(NCCc3ccc(O)cc3)nc(-c3csc4ccccc34)nc21` [StemRegenin 1] (100 nM), the normalised response was 118%.

Each compound was assayed on HDQ-P1 in the same assay as above. Settings: incubation time: 72 h.
Method in brief: as §1
For `CCn1c(C(=O)N(C2CC2)C2CC2)cc2c3c(ncn3C)c(Nc3cc(C)n(C)n3)nc21` (100 nM), the normalised response was 102%.
Compound `COc1ccc(S(=O)(=O)Nc2cccnc2Nc2ccc(O)cc2)cc1` [ABT-751] (100 nM) has a normalised response of 101%.
`CCNC(=O)CCC/C=C\C[C@@H]1[C@@H](/C=C/[C@@H](O)CCc2ccccc2)[C@H](O)C[C@@H]1O` [Bimatoprost] (55 nM) gave a normalised response of 64.3%.
`COc1cc(Nc2c(C#N)cnc3cc(OCCCN4CCN(C)CC4)c(OC)cc23)c(Cl)cc1Cl` [Bosutinib] (100 nM) showed a normalised response of 101%.
With `CCN(CC)CCCC(C)Nc1ccnc2cc(Cl)ccc12` (stereo not given) [Chloroquine] (1000 nM) the normalised response was 88.4%.
`CC(C)(C)c1nc(-c2cccc(NS(=O)(=O)c3c(F)cccc3F)c2F)c(-c2ccnc(N)n2)s1` [Dabrafenib] (25 nM) showed a normalised response of 95.9%.
`CC(C)n1cnc2c(NCCc3ccc(O)cc3)nc(-c3csc4ccccc34)nc21` [StemRegenin 1] (100 nM) showed a normalised response of 88.2%.

These compounds were tested on MFM-223 in the same assay as above. Settings: incubation time: 72 h.
Method in brief: as §1
`CCn1c(C(=O)N(C2CC2)C2CC2)cc2c3c(ncn3C)c(Nc3cc(C)n(C)n3)nc21` (100 nM) was tested, and the normalised response was 94.8%.
Compound `CCNC(=O)CCC/C=C\C[C@@H]1[C@@H](/C=C/[C@@H](O)CCc2ccccc2)[C@H](O)C[C@@H]1O` [Bimatoprost] (55 nM) has a normalised response of 101%.
`COc1cc(Nc2c(C#N)cnc3cc(OCCCN4CCN(C)CC4)c(OC)cc23)c(Cl)cc1Cl` [Bosutinib] (100 nM) showed a normalised response of 101%.
In the case of `CCN(CC)CCCC(C)Nc1ccnc2cc(Cl)ccc12` (stereo not given) [Chloroquine] (1000 nM), the normalised response is reported as 87.7%.
`CO[C@@]12[C@H](COC(N)=O)C3=C(C(=O)C(C)=C(N)C3=O)N1C[C@@H]1N[C@@H]12` [Mitomycin C] (100 nM) was tested, and the normalised response was 99.2%.
`CC1(C)CCC(c2ccc(Cl)cc2)=C(CN2CCN(c3ccc(C(=O)NS(=O)(=O)c4ccc(N[C@H](CCN5CCOCC5)CSc5ccccc5)c(S(=O)(=O)C(F)(F)F)c4)cc3)CC2)C1` [Navitoclax] (100 nM) was tested, and the normalised response was 103%.
`CC(C)n1cnc2c(NCCc3ccc(O)cc3)nc(-c3csc4ccccc34)nc21` [StemRegenin 1] (100 nM) was tested, and the normalised response was 98.8%.

What follows are compounds tested on CAL-148 in the same assay as above. Settings: incubation time: 72 h.
Method in brief: as §1
Compound `CCn1c(C(=O)N(C2CC2)C2CC2)cc2c3c(ncn3C)c(Nc3cc(C)n(C)n3)nc21` (100 nM) has a normalised response of 103%.
